# From ChEMBL document CHEMBL1201862, “PubChem BioAssay data set” (2004)
# Active and inactive are the calls of the source.
# Assays:
# [1] = viability loss in HepG2 hepatoma cells – cell-based, ATP luminescence, cherry-pick, activator set 2, cytotoxicity control, dose response (AID 1053143); type: functional
# [2] = biological target: Luciferin 4-monooxygenase (Photinus pyralis, UniProt P08659); assay: Counter Screen for Luciferase-based Assay Positives. [Related pubchem assays: 620, 618, 411 ]
# HT-1080 = assay: HT1080 cell viability loss – fluorescence readout (AID 620); type: functional, cell-based; details: Homo sapiens
# [3] = biological target: Dual specificity tyrosine-phosphorylation-regulated kinase 1A (Rattus norvegicus, UniProt Q63470); type: biochemical, Homo sapiens
# Escherichia coli = assay: microbe, parasite or virus in culture
# HeLa = assay: viability loss in HeLa cells – cell-based, ATP luminescence, cherry-pick samples, cytotoxicity control, dose response (AID 687004); type: functional; details: Homo sapiens
# [4] = luciferase reporter signal suppression in cells – H4 neuroglioma cells, luminescence, dose response (AID 1990); type: functional, cell-based
# [5] = biological target: T1, Trace amine-associated receptor 1 (Homo sapiens, UniProt Q96RJ0); assay: Fluorescence-based cell-based high throughput dose response assay to identify antagonists of the human trace amine associated receptor 1 (TAAR1).; type: functional
# T1 sequence (Q96RJ0 whole entry): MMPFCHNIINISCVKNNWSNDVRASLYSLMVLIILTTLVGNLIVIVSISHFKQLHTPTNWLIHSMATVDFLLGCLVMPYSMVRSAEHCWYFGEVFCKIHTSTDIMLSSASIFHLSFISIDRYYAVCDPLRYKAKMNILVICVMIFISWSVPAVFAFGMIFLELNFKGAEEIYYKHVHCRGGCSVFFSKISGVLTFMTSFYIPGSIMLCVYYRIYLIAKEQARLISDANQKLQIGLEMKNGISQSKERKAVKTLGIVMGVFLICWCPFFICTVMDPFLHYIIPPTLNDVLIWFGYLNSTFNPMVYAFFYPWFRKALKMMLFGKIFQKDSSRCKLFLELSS
# [6] = Counterscreen for […] of the human trace amine associated receptor 1 (TAAR1): Fluorescence-based cell-based high throughput dose response assay to identify nonselective Ga16 agonists.; type: functional
# [7] = biological target: T1, Trace amine-associated receptor 1; assay: Counterscreen for antagonists of the human trace amine associated receptor 1 (hTAAR1): Fluorescence-based cell-based high throughput dose response assay to identify TAAR1 Agonists.; type: functional
# [8] = Counterscreen for antagonists of the human trace amine associated receptor 1 (hTAAR1): Fluorescence-based cell-based high throughput dose response assay to identify nonselective Ga16 antagonists.; type: functional
# [9] = alpha-synuclein stem-loop luciferase translation blockers – H4 neuroglioma cells, luminescence, confirmation (AID 1988); type: functional, cell-based
# [10] = Luminescence Cell-Based Dose Response HTS to Identify Inhibitors of 5'UTR Stem-Loop Driven Prion Protein mRNA Translation in H4 Neuroglioblastoma Cells. [Related pubchem assays: 1827 (Project Summary), 1813 (Primary HTS)]; type: functional
# Streptococcus = assay: GAS UMAA2166 growth inhibition – luminescence, BacTiterGlo, counter-screen for streptokinase expression inhibitor project, dose response (AID 1915); type: functional, organism-based;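 note: potency for reduction of bacterial viability or growth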
# [11] = biological target: T2, Short transient receptor potential channel 4 (Mus musculus, UniProt Q9QUQ5); assay: calcium entry via TRPC4 opening agents – cell-based, HEK293 TRPC4/mu-opioid, Fluo-4 calcium, dose response (AID 434937); type: functional
# T2 sequence (Q9QUQ5 whole entry): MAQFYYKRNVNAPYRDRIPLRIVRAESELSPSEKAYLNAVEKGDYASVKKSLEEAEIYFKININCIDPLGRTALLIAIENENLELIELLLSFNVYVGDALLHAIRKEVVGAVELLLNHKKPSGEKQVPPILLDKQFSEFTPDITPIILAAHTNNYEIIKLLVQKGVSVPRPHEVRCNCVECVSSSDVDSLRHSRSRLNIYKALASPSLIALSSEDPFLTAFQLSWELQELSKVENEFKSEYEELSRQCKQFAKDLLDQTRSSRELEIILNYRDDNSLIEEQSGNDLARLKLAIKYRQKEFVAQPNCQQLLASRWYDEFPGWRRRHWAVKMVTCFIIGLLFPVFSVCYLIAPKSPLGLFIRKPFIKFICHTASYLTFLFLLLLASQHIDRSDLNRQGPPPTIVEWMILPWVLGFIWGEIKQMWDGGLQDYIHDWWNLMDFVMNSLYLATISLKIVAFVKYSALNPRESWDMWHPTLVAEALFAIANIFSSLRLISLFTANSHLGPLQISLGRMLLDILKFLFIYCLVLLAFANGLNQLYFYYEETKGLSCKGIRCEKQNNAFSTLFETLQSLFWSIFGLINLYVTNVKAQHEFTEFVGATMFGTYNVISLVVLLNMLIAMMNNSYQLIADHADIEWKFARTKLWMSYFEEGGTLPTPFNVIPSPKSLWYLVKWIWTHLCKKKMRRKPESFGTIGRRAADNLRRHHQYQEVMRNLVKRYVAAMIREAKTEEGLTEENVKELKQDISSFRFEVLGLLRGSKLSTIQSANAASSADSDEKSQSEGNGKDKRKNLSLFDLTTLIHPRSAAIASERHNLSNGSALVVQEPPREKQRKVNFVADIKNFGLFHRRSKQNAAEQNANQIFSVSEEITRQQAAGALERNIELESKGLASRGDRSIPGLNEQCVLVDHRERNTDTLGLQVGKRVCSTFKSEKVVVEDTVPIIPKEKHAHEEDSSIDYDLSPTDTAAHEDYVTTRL
# [12] = HGIII-sPLA2 enzyme inhibition potency – biochemical, QFRET, IC50, dose response (AID 743457);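 note: green fluorescence rise as the enzyme cleaves BODIPY PC-A2 in liposomes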
# [13] = tested on: Streptococcus sp. 'group A'; assay: Streptococcus pyogenes SK(-)GAS viability under kanamycin – luminescence, BacTiterGlo, confirmation, counter-screen for streptokinase expression inhibitor project, dose response (AID 1900); type: functional, organism-based
# H4 = assay: Luminescence Cell-Based Dose Response HTS to Identify Activators of 5'UTR Stem-Loop Driven Prion Protein mRNA Translation in H4 Neuroglioblastoma Cells. [Related pubchem assays: 1829 (Project Summary), 1814 (Primary HTS)]; type: functional; details: Homo sapiens
# [14] = Luminescence Cell-Based Dose Response to Identify Activators of Luciferase Translation or Activity in H4-C Neuroglioblastoma Cells. [Related pubchem assays: 1829 (Project Summary), 1814 (Primary HTS)]; type: functional
# [15] = Luminescence Cell-Based Dose Response HTS to Identify Activators of Luciferase Translation or Activity in H4 […] Cells. [Related pubchem assays: 1829 (Project Summary), 1814 (Primary HTS)]; type: functional
# INS1 = assay: INS-1E survival protection against cytokine death – cell-based, luminescence, retest, dose response (AID 449756); type: functional; details: Rattus norvegicus;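 note: cell death triggered by IL-1 beta plus TNF-alpha plus IFN-gamma mixture; protective hits raise ATP signal compared with cytokine alone wells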
# Caspase-6 [16] = biological target: T3, Caspase-6 (Homo sapiens, UniProt P55212); assay: inhibition of CASP6 peptide cleavage – biochemical, VEID-R110 fluorescence, cherry-pick, dose response (AID 720632)
# T3 sequence (P55212 whole entry): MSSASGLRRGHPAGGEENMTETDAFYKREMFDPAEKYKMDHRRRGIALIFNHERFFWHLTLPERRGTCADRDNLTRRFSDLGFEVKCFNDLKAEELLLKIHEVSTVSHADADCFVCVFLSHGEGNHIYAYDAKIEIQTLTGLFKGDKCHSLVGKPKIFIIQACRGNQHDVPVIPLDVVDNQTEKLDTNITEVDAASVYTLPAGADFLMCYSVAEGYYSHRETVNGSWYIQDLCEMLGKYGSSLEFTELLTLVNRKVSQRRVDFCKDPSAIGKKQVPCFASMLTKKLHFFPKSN
# [17] = Luminescence Cell-Based Dose Confirmation to Identify Activators of 5'UTR Stem-Loop Driven Alpha-Synuclein mRNA Translation in H4 Neuroglioblastoma Cells. [Related pubchem assays: 1829 (Project Summary), 1814 (Primary HTS)]; type: functional
# [18] = Luminescence Cell-Based Dose Response to Identify Activators of 5'UTR Stem-Loop Driven Prion Protein mRNA Translation in H4-C Neuroglioblastoma Cells. [Related pubchem assays: 1829 (Project Summary), 1814 (Primary HTS)]; type: functional
# Caspase-7 = Caspase-7 (Homo sapiens, UniProt P55210); assay: caspase-7 enzyme inhibition, selectivity check – biochemical, DEVD-R110 fluorescence, cherry-pick, selectivity assay for caspase-6 inhibitor project, dose response (AID 743295); type: functional
# Caspase-6 [19] = biological target: T3, Caspase-6; assay: inhibition of CASP6 peptide cleavage – biochemical, VEID-R110 fluorescence, dry powder retest, dose response (AID 743332)
# CHO = CHO cell viability loss, potency – luminescence, cytotoxicity control for TLR9-MyD88 binding inhibitor project, dose response (AID 588339); type: functional, cell-based, hamster; details: Cricetulus griseus;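 note: CHO cells stably coexpressing TLR9 and MyD88 fusions from primary screen; compound exposure lasted 48 hours before viability readout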
# [20] = biological target: T4, Rac GTPase-activating protein 1 (Homo sapiens, UniProt Q9H0H5); assay: blockers of MgcRacGAP-driven Rac1 GTP hydrolysis – biochemical, ADP Hunter fluorescence, primary and confirmatory, confirmation (AID 624330); type: functional
# T4 sequence (Q9H0H5 whole entry): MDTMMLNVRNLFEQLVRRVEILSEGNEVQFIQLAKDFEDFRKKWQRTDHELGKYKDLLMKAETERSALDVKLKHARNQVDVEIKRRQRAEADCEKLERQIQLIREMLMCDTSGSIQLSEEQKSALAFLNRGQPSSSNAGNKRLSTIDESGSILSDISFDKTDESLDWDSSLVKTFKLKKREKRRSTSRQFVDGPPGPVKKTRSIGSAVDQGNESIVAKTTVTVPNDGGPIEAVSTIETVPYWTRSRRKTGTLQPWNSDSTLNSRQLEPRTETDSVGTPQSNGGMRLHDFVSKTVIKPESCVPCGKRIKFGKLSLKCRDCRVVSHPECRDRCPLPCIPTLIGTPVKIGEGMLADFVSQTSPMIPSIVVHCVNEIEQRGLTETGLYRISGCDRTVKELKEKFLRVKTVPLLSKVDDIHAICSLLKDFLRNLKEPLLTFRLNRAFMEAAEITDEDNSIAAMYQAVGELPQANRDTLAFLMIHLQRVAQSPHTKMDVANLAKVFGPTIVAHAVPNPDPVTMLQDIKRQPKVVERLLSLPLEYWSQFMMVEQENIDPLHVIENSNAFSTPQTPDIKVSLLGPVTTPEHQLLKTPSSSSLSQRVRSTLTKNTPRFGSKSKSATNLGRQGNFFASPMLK
# Beta Lactamase = Beta Lactamase (Pseudomonas aeruginosa, UniProt Q932Y6); assay: BLA reporter interference, concentration series – BLA reporter cells, FRET fluorescence, artefact control for TLR9-MyD88 binding inhibitor project, dose response (AID 588341); type: cell-based;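 note: cell based assay in CHO-K1 cells stably expressing beta-lactamase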
# NS3 = NS3 (Hepatitis C virus, UniProt A3EZJ3); assay: NS3h DNA-binding inhibition IC50 – biochemical, fluorescence polarization, ChemBridge library, dose response (AID 743264)
# [21] = biological target: Protein disulfide-isomerase (Homo sapiens, UniProt P07237); assay: inhibition of PDI-mediated insulin reduction – biochemical, turbidity, dry powder samples, set 2, confirmation (AID 652146)
# [22] = HeLa cell viability loss – 24 h, dry powder, set 2, cytotoxicity control, dose response (AID 651774); type: functional, cell-based
# NS3, sequence (A3EZJ3 whole entry): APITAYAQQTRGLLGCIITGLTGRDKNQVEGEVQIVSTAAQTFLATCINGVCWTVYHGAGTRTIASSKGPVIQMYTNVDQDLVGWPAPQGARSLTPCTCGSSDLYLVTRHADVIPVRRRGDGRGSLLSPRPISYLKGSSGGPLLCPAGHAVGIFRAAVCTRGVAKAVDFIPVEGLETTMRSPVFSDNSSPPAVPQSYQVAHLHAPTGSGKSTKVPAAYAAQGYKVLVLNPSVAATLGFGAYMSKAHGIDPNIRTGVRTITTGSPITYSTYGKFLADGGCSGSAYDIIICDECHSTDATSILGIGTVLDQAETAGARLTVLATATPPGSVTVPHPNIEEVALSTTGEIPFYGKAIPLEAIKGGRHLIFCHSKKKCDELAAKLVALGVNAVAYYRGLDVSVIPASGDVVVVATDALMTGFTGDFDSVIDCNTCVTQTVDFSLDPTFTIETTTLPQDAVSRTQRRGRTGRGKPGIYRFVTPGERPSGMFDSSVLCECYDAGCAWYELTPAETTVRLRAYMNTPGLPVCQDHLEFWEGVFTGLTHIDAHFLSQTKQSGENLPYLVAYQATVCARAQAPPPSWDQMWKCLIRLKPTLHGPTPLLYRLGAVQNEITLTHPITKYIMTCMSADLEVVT
# Beta Lactamase, sequence (Q932Y6 whole entry): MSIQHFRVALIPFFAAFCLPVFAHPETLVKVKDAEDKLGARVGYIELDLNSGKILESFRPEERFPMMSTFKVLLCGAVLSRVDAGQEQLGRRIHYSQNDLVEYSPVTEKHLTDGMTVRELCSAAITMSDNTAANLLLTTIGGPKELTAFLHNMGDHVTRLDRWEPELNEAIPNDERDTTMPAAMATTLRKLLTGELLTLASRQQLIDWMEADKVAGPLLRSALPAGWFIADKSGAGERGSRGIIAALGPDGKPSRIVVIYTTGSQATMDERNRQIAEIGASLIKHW
# Protein disulfide-isomerase, sequence (P07237 whole entry): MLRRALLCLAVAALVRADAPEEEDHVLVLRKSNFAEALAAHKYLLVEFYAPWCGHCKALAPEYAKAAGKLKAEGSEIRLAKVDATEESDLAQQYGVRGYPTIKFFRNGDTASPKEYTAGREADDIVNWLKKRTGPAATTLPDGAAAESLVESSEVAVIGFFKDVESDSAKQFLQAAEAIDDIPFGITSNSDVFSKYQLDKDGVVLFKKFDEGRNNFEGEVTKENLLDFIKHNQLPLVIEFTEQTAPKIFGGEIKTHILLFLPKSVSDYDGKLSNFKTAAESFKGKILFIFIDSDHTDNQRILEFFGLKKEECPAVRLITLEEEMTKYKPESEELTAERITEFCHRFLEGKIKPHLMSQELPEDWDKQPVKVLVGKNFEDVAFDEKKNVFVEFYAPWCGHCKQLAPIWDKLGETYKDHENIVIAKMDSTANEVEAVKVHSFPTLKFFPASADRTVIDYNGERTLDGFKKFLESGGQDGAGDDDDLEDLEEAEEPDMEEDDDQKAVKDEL
# Luciferin 4-monooxygenase, sequence (P08659 whole entry): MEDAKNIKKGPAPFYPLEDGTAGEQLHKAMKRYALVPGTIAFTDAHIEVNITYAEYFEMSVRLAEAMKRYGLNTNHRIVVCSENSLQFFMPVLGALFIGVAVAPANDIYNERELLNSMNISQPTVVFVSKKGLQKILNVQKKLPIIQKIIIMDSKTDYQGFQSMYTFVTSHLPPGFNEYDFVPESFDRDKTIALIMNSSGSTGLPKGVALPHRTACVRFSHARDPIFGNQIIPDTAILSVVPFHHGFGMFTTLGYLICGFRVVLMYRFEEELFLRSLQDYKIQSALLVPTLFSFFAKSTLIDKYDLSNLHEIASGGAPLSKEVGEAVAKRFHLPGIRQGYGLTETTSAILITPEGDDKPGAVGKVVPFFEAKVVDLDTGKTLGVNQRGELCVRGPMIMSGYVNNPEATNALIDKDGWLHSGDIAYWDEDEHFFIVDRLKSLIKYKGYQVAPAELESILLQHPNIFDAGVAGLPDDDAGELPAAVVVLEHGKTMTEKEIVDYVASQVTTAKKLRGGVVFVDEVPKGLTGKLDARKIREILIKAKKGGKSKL
# Caspase-7, sequence (P55210 24-198 limits assumed): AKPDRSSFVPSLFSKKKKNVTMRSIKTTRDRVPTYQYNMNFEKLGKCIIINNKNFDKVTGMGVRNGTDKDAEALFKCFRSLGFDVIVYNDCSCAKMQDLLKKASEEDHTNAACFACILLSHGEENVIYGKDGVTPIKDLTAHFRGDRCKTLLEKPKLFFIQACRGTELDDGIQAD
# Caspase-7, sequence (P55210 207-303 limits assumed): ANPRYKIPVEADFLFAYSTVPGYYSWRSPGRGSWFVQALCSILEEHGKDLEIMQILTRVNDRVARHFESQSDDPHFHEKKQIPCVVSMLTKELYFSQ
smiles,measurement,setting,value
Nc1ccc(C(=O)Nc2nc3ccccc3s2)cc1,AC50,[1],26 µM (active)
same,EC50,[2],0.32 µM (active)
same,EC50,HT-1080,> 50 µM (not active)
same,AC50,[3],4.15 µM (active)
same,AC50,Escherichia coli,47.5 µM (active)
COc1ccc(C(=O)NC(=S)Nc2ccccc2N2CCOCC2)cc1[N+](=O)[O-],AC50,HeLa,> 52 µM (inactive)
Cc1ccccc1N(C(=O)c1snc(C(N)=O)c1N)C(C(=O)NC1CCCCC1)c1ccc(O)cc1 (configuration not stated),EC50,[4],12.8 µM (active)
same,IC50,[5],3.16 µM (active)
same,EC50,[6],> 29.9 µM (inactive)
same,EC50,[7],> 29.9 µM (inactive)
same,IC50,[8],> 29.9 µM (inactive)
same,EC50,[9],77.7 µM (active)
same,EC50,[10],> 120 µM (not active)
Cc1onc(-c2ccccc2)c1C(=O)NNC(=S)NC(=O)c1ccc2c(c1)OCO2,EC50,Streptococcus,4.64 µM (active)
same,EC50,[11],4.22 µM (active)
same,IC50,[12],56.6 µM (inactive)
same,EC50,[13],0.978 µM (active)
[O-][n+]1onc2c1CCc1c-2nn(-c2ccccc2Cl)[n+]1[O-],EC50,H4,> 120 µM (not active)
same,EC50,[14],1.41 µM (active)
same,EC50,[15],< 0.1 µM (inconclusive)
same,AC50,INS1,6.94 µM (active)
same,AC50,Caspase-6 [16],0.651 µM (active)
same,EC50,[17],0.766 µM (active)
same,EC50,[18],> 12 µM (not active)
same,AC50,Caspase-7,> 70 µM (inactive)
same,AC50,Caspase-6 [19],4.66 µM (active)
O=C1C=CC(=O)N1c1ccccc1N1C(=O)C=CC1=O,IC50,CHO,2.55 µM (active)
same,IC50,[20],62.2 µM (active)
same,IC50,Beta Lactamase,13.6 µM (inactive)
same,IC50,NS3,34.9 µM (inactive)
CCOC(=O)C1(CCOc2ccccc2)CCN(C(=O)c2ccc(O)c(Cl)c2)CC1,AC50,[21],3 µM (active)
CCn1nnnc1NC(=O)c1ccc(N2CCCC2)cc1,AC50,[22],19.7 µM (active)
